The source of these data is PMC11943950, “Characterization of Flexusin A, a Novel Circular Bacteriocin Produced by Marine Bacterium Bacillus flexus R29-2” (Marine Drugs, 2025).

Converted amounts (≈) assume the structure as drawn. Where two headings read alike, the source gives them in different places.

Series [1] deals with E. faecalis CICC 21605. Description: microbe, parasite or virus in culture. Type of series: cell-based, Enterococcus faecalis. As to the method: (§1) An array of indicator strains (S. aureus ATCC 6538, E. faecalis CICC 21605, E. faecium CICC 10004 and L. monocytogenes ATCC 19115) were used to determine the MIC of flexusin A by the methods, as reported. […] The purified powder of flexusin A was reconstituted at 256 μg/mL to serve as the stock solution. It was then used for the antibacterial activity assay over a range of 256, 128, 64, 32, 16, 8, 4, 2, 1, 0.5, 0.25, and 0.125 μg/mL. The protein concentration of the flexusin A stock solution was determined by the BCA method (BCA Protein Assay Kit, Sangon Biotech)”. Water was used as a negative control, whereas ampicillin (Solarbio, Beijing, China) was used as positive control. All assays were performed in triplicate. MIC was defined as the lowest concentration of flexusin A that inhibited indicator growth, as no visible microbial growth was observed.

Series [2] concerns S. aureus ATCC 6538. Description: microbe, parasite or virus in culture. It is filed as cell-based, Staphylococcus aureus. Here is the method:
as §1

The subject of series [3] is L. monocytogenes ATCC 19115. Description: microbe, parasite or virus in culture. Type of series: cell-based, Listeria monocytogenes. Here is the method: as §1
For series [4], the system named is E. faecium CICC 10004. Description: MIC by broth microdilution. The conditions noted are these: Enterococcus faecium, CICC10004, 96-well, approximately 1 × 10^6 CFU/mL, 37 °C, 24 h, no visible growth, triplicate. Type of series: cell-based. Here is the method:
as §1
On the technique in general: Broth dilution looks for growth in wells or tubes with falling amounts of substance.

For series [5], the system named is trypsin. The following applies: trypsin 1 mg/mL, 25 mM phosphate buffer pH 7.0, 37 °C for 4 h; residual antimicrobial activity, spot-on-lawn bioassay. Here is the method: (§2) The HPLC purified bacteriocin samples were made readily soluble in neutral water, and the stock solution was then tested for sensitivity to heat, pH changes, and degradative enzymes. The qualitative spot-on-lawn bioassay was used to monitor changes in antimicrobial potency after treatments mentioned. For thermal stability testing, aliquots of the HPLC-purified peptide samples were exposed to 30 °C, 40 °C, 50 °C, 60 °C, 70 °C, 80 °C, 90 °C, and 100 °C for 30 min, respectively. For the pH stability test, aliquots of the stock solutions were adjusted to pH 2.0, 3.0, 4.0, 5.0, 6.0, 7.0, 8.0, and 9.0, followed by incubation at 25 °C for 2 h.
(§3) Sensitivity to various degradative enzymes was determined using trypsin, papain, pepsin, chymotrypsin, and protease K at a final concentration of 1 mg/mL, respectively. All enzymes were purchased from Sigma, and their solutions were prepared in 25 mM phosphate buffer, pH 7.0 (pepsin, pH = 2.0). Solutions of the antimicrobial peptide were prepared in the same sterile buffer. After mixing the enzymatic reaction solutions were incubated at 37 °C for 4 h before residual antimicrobial activity measurement.

Series [6] concerns the target protease K (Parengyodontium album, UniProt P06873). The following applies: protease K 1 mg/mL, 25 mM phosphate buffer pH 7.0, 37 °C for 4 h; residual antimicrobial activity, spot-on-lawn bioassay. As to the method: as §2, §3
The target in series [7] is chymotrypsin (Bos taurus, UniProt P00766). The following applies: chymotrypsin 1 mg/mL, 25 mM phosphate buffer pH 7.0, 37 °C for 4 h; residual antimicrobial activity, spot-on-lawn bioassay. As to the method:
as §2, §3

In series [8] the target is pepsin (Sus scrofa, UniProt P00791). The following applies: pepsin 1 mg/mL, 25 mM phosphate buffer pH 2.0, 37 °C for 4 h; residual antimicrobial activity, spot-on-lawn bioassay. As to the method: as §2, §3
Sequence of pepsin (P00791 60-385): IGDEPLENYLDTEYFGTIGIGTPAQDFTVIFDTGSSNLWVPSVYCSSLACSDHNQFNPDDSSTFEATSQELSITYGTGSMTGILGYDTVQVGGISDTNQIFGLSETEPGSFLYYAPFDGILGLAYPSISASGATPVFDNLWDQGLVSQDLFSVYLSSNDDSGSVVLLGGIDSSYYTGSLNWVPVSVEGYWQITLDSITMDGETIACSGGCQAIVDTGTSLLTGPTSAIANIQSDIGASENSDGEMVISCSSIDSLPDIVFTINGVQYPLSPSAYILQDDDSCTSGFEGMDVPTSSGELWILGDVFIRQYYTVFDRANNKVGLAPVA
For series [9] the following is noted: pH range from 2.0 to 10.0 (method: pH 2.0-9.0), 25 °C for 2 h; read-out qualitative spot-on-lawn bioassay.
The conditions of series [10]: HPLC purified sample, neutral water; qualitative. Here is the method:
as §2

For series [11] the following is noted: treated for 30 min from 20 to 100 °C (method: 30-100 °C); read-out qualitative spot-on-lawn bioassay.

Sequence of protease K (P06873 106-384): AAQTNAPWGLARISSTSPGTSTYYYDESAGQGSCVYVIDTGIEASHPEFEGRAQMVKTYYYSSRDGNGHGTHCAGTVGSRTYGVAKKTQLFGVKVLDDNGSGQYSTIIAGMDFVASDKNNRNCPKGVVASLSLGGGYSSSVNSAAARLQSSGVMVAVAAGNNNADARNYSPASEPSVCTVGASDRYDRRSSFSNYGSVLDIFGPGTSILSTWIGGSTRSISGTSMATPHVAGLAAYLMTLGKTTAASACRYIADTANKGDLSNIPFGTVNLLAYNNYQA

`CC1(C)S[C@@H]2[C@H](NC(=O)[C@H](N)c3ccccc3)C(=O)N2[C@H]1C(=O)O` [Amp, ampicillin, reference compound]: the MIC is over 51.2 µg/mL in [1] (Enterococcus faecalis, CICC21605, E. faecalis CICC 21605, broth microdilution, 96-well, approximately 1 × 10^6 CFU/mL, 37 °C, 24 h, no visible growth, triplicate, read-out: MIC); 0.4 µg/mL (≈ 1.14 µM) in series [2] (Staphylococcus aureus, ATCC6538, S. aureus ATCC 6538, broth microdilution, 96-well, approximately 1 × 10^6 CFU/mL, 37 °C, 24 h, no visible growth, triplicate, read-out: MIC); 0.0625 µg/mL (≈ 0.179 µM) in series [3] (Listeria monocytogenes, ATCC19115, L. monocytogenes ATCC 19115, broth microdilution, 96-well, approximately 1 × 10^6 CFU/mL, 37 °C, 24 h, no visible growth, triplicate, read-out: MIC); 1.6 µg/mL (≈ 4.58 µM) in series [4].
Consider “cyclo(AGALGISEYWANVIVTAIEAGSTVLALISMFASFGLTSALILTAKSLLKKGAKKTAVAYI) [flexusin A]”, for which the MIC in series [1] (CICC 21605, 24 h) is listed as 16 µg/mL; in series [2] (ATCC 6538, 24 h) it was 1 µg/mL; in [3] (ATCC 19115, 24 h) it was 2 µg/mL. In series [5], the “Resistance to trypsin (remaining activity)” value is given as “tolerant”. Further, the “Resistance to protease K (remaining activity)” value in [6] was “sensitive”. Also, the “Resistance to chymotrypsin (remaining activity)” value in [7] was “sensitive”. Besides, the “Resistance to pepsin (remaining activity)” value in series [8] is “tolerant”. Moreover, the “pH stability (remaining activity)” value in [9] was “stable”. The Solubility in water entry in series [10] is listed as “water soluble”. Also, in [11], the “Thermal stability (remaining activity)” value is “decent thermal stability”.
